Measurements published in PubChem BioAssay AID787 (PCMD, 2007).
Active and inactive are the calls of the source. The rule behind the calls is not given here.

Biological target: Complement C1s subcomponent (Homo sapiens) (UniProt P09871)
Experiment: C1s inhibitor IC50 values, dose response, biochemical (AID 787)
Settings: purified C1s enzyme, fluorogenic substrate, FU read-out

Sequence of Complement C1s subcomponent (Homo sapiens) (P09871 16-437 limits assumed): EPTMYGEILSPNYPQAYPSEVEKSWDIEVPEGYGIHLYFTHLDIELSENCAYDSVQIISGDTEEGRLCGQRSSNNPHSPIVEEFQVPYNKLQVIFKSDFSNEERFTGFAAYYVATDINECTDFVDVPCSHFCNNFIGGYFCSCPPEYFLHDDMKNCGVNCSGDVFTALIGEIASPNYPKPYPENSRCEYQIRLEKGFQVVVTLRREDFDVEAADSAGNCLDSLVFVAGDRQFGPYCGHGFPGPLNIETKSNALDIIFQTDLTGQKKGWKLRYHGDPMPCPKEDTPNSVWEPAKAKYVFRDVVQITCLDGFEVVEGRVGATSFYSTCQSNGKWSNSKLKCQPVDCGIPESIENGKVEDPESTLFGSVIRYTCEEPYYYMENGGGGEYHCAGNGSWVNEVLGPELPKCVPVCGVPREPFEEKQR
Sequence of Complement C1s subcomponent (Homo sapiens) (P09871 438-688 limits assumed): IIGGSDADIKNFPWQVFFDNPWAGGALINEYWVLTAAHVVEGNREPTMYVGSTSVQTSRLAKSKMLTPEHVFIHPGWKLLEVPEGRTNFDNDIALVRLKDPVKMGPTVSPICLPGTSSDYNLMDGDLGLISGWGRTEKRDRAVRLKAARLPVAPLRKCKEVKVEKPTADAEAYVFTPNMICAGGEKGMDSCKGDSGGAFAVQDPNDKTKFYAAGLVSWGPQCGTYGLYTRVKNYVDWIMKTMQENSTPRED

IC50, inactive:
CCOc1ccc(N2C(=O)CC(N3CCN(c4ccccc4F)CC3)C2=O)cc1 (centres undefined) > 50 µM
CCOC(=O)N1CC=C2C(C#N)=C(N)C(C#N)(C#N)[C@H](c3ccccc3OCC)[C@H]2C1 > 50 µM
O=C(Oc1ccc(Cl)cc1N1C(=O)CCC1=O)c1ccco1 > 50 µM
COC(=O)Cc1[nH]nc2c1C1(C(=O)N(Cc3ccccc3)c3ccccc31)C(C#N)=C(N)O2 (centres undefined) > 50 µM
COc1cccc(C2=CC(c3cccc(OC)c3OC)n3nnnc3N2)c1 (centres undefined) > 50 µM
COc1ccc(NC(=O)CSC2=C(C#N)C(c3ccco3)C3=C(CCCC3=O)N2)c(OC)c1 (centres undefined) > 50 µM
Cc1cccc(COc2ccc(/C(O)=C3\C(=O)C(=O)N(CCN(C)C)C3c3ccncc3)cc2)c1 (centres undefined) > 50 µM
O=C1CCCC2=C1C1(CCCCC1)N=C(Nc1nc3ccccc3o1)N2 > 50 µM
O=C1CCCC(O)=C1C=NCCc1ccccc1 > 50 µM
